According to patent publication US11912794B2, “Modulation of structured polypeptide specificity” (BicycleRD Limited, priority 2011, dated 2024):
Numbered stars: 1 amine (or outer) side, 2 acyl side, 3 side chain; on linkers, the order of the positions; unused ones are H or OH. Bridge positions count the residues as written; N and C are the ends. Square brackets hold non-standard residues; d marks the D form. Peptide text beside a SMILES is read from it. Tpi = O=C(O)[C@@H]1Cc2c([nH]c3ccccc23)CN1; X1 = O=C([C@@H]1Cc2ccccc2N1[*:1])[*:2]; TBMB = c1c(C[*:1])cc(C[*:3])cc1C[*:2]; NMeR = CN[C@@H](CCCNC(=N)N)C(=O)O; 3Pal = N[C@@H](Cc1cccnc1)C(=O)O; 4Pal = N[C@@H](Cc1ccncc1)C(=O)O; Cha = N[C@@H](CC1CCCCC1)C(=O)O; Pip = O=C(O)[C@@H]1CCCCN1; Dpg = CCCC(N)(CCC)C(=O)O; Aze = O=C(O)[C@@H]1CCN1; Sar = CNCC(=O)O

target: T1, human plasma Kallikrein (Homo sapiens, UniProt P03952); test: Functional enzyme inhibition assay, fluorogenic substrate Z-PheArg-AMC; assay type: biochemical; settings: not given
T1 construct: purchased Stratech, UK
T1 sequence (P03952 20-638): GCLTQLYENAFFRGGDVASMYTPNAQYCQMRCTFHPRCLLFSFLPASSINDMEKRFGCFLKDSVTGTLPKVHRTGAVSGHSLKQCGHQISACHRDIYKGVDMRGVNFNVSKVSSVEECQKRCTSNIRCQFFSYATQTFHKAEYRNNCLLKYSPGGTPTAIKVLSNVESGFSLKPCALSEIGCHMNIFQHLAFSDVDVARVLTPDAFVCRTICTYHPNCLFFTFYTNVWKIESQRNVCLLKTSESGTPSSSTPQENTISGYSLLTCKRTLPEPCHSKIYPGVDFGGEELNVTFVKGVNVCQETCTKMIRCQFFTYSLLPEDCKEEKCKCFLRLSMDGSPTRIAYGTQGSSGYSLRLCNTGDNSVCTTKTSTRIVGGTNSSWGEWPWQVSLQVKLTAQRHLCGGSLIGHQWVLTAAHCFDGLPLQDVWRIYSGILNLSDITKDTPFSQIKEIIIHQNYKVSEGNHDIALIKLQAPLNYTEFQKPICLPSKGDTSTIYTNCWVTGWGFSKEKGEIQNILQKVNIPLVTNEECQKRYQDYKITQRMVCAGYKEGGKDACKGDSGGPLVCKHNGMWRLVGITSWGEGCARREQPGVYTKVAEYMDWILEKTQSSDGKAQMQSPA
Procedure: Peptides were dissolved as the TFA-salts in their powder form, and stock solutions were usually prepared in water. All solutions were centrifuged and filtered ([…] syringe filters) prior absorption measurement at 280 nm. […] For peptides containing non-natural amino acids with suspected chromophoric properties (i.e. NorHar, 4PhenylPro, 3PaI, 4PaI, Tic, 4GuanPhe, 4,4-BPAI, 3,3-DPA, 1NAI, 2NAI, 4BenzylPro, Ind) concentrations were determined by weighing the powder and dissolving the peptide in a defined quantity of water.

Which “potency against human plasma Kallikrein compared to parent” value does the source give for `CC(C)C[C@@H]1NC(=O)[C@H](CC(=O)O)NC(=O)[C@H](CCC(N)=O)NC(=O)[C@H](Cc2c[nH]cn2)NC(=O)[C@H](C)NC(=O)[C@@H]2CSCc3cc(cc(c3)CSC[C@@H](C(=O)N[C@@H](C)C(N)=O)NC1=O)CSC[C@H](NC(=O)[C@H](C)N)C(=O)N[C@@H](C)C(=O)N[C@@H](Cc1c[nH]c3ccccc13)C(=O)N1CCC[C@H]1C(=O)N[C@@H](C)C(=O)N[C@@H](CCCNC(=N)N)C(=O)N2` [06-34-03 - Ala1,6] (H-ACAWPARCAHQDLCA-NH2; linker 2-8-14 via TBMB; N-terminus and C-terminus assumed) here?
Its value is “retained full potency”.

With `CC(C)C[C@@H]1NC(=O)[C@H](CC(=O)O)NC(=O)[C@H](CCC(N)=O)NC(=O)[C@H](Cc2c[nH]cn2)NC(=O)CN(C)C(=O)[C@@H]2CSCc3cc(cc(c3)CSC[C@H](NC(=O)[C@H](C)N)C(=O)N(C)CC(=O)N[C@@H](Cc3c[nH]c4ccccc34)C(=O)N3CCC[C@H]3C(=O)N[C@@H](C)C(=O)N[C@@H](CCCNC(=N)N)C(=O)N2)CSC[C@@H](C(=O)N[C@@H](C)C(N)=O)NC1=O` [06-34-03 - N-MeGly1,6, AC N-MeGWPARCN-MeGHQDLCA] (H-AC[Sar]WPARC[Sar]HQDLCA-NH2; linker 2-8-14 via TBMB; N-terminus and C-terminus assumed) as the molecule, how does the “potency against human plasma Kallikrein compared to parent” value read?
Its value is “reduction in potency”.

same assay, conditions: Ki (nM) (human kallikrein), Ac-06-34-18(TMB)-NH2 series

With `CC(=O)N[C@H]1CSCc2cc3cc(c2)CSC[C@H](NC(=O)[C@H](CCCNC(=N)N)NC(=O)[C@H](Cc2ccc(O)cc2)NC(=O)[C@@H]2CCCN2C(=O)[C@H](Cc2ccncc2)NC(=O)[C@H](CO)NC1=O)C(=O)N[C@@H](CC(C)C)C(=O)N[C@@H](Cc1c[nH]cn1)C(=O)N[C@@H](CCC(N)=O)C(=O)N[C@@H](CC(=O)O)C(=O)N[C@@H](CC(C)C)C(=O)N[C@H](C(N)=O)CSC3` [Ac-(06-34-18) 4Pal2 Tyr4] (Ac-CS[4Pal]PYRCLHQDLC-NH2; linker 1-7-13 via TBMB) as the molecule, how does the Ki read?
The Ki was 3.56 nM.

same assay, conditions: Ki, text b293, unit inferred

Which Ki does the source give for `CC(=O)N[C@H]1CSCc2cc3cc(c2)CSC[C@H](NC(=O)[C@H](CCCNC(=N)N)NC(=O)[C@H](Cc2ccc(O)cc2)NC(=O)[C@@H]2CCCN2C(=O)[C@H](Cc2cccnc2)NC(=O)[C@H](CO)NC1=O)C(=O)N[C@@H](CC(C)C)C(=O)N[C@@H](Cc1c[nH]cn1)C(=O)N[C@@H](CCC(N)=O)C(=O)N[C@@H](CC(=O)O)C(=O)N[C@@H](CC(C)C)C(=O)N[C@H](C(N)=O)CSC3` [Ac-(06-34-18) 3Pal2 Tyr4] (Ac-CS[3Pal]PYRCLHQDLC-NH2; linker 1-7-13 via TBMB) here?
The Ki was 0.91 nM.

same assay, conditions: vs Ac-06-34-18(TMB)-NH2

With `CC(=O)N[C@H]1CSCc2cc3cc(c2)CSC[C@H](NC(=O)[C@H](Cc2ccc(NC(=N)N)cc2)NC(=O)[C@H](C)NC(=O)[C@@H]2CCCN2C(=O)[C@H](Cc2c[nH]c4ccccc24)NC(=O)[C@H](CO)NC1=O)C(=O)N[C@@H](CC(C)C)C(=O)N[C@@H](Cc1c[nH]cn1)C(=O)N[C@@H](CCC(N)=O)C(=O)N[C@@H](CC(=O)O)C(=O)N[C@@H](CC(C)C)C(=O)N[C@H](C(N)=O)CSC3` [Ac-(06-34-18) 4GuanPhe5] as the molecule, how does the “loss in potency / reduction in affinity compared to wildtype” value (“loss in potency / reduction in affinity” below) read?
The value was 2 fold.

Which “loss in potency / reduction in affinity” value does the source give for `CC(=O)N[C@H]1CSCc2cc3cc(c2)CSC[C@H](NC(=O)[C@H](CCCNC(=N)N)NC(=O)[C@@H](C)NC(=O)[C@@H]2CCCN2C(=O)[C@H](Cc2c[nH]c4ccccc24)NC(=O)[C@H](CO)NC1=O)C(=O)N[C@@H](CC(C)C)C(=O)N[C@@H](Cc1c[nH]cn1)C(=O)N[C@@H](CCC(N)=O)C(=O)N[C@@H](CC(=O)O)C(=O)N[C@@H](CC(C)C)C(=O)N[C@H](C(N)=O)CSC3` [Ac-(06-34-18) D-Ala4] here?
The value was 7000 fold.

For `CC(=O)N[C@H]1CSCc2cc3cc(c2)CSC[C@H](NC(=O)[C@@H](CCCNC(=N)N)NC(=O)[C@H](C)NC(=O)[C@@H]2CCCN2C(=O)[C@H](Cc2c[nH]c4ccccc24)NC(=O)[C@H](CO)NC1=O)C(=O)N[C@@H](CC(C)C)C(=O)N[C@@H](Cc1c[nH]cn1)C(=O)N[C@@H](CCC(N)=O)C(=O)N[C@@H](CC(=O)O)C(=O)N[C@@H](CC(C)C)C(=O)N[C@H](C(N)=O)CSC3` [Ac-(06-34-18) D-Arg5], which “loss in potency / reduction in affinity” value is on record?
Its value is 300 fold.

test system: not listed separately; test: Plasma stability profiling method 1 (35% plasma, MALDI-TOF, qualitative); assay type: in vitro ADME, rat; settings: 35% rat plasma, 37 deg C, method 1, comparative estimate
Procedure: Three methods were employed to assess the stability of bicycles (peptides conjugated to molecular scaffolds) in plasma.
A rapid plasma stability profiling assay was developed that employed mass spectrometric detection (MALDI-TOF, Voyager DE, Applied Biosystems) of the parent mass, until the time when the parent peptide mass was no longer observable. Specifically, 200 uM of peptide was incubated in the presence of 35% rat or human plasma (Sera labs, using citrate as anticoagulant) at 37 deg C., which was supplemented with 1×PBS (derived from a 10×PBS Stock, Sigma). At various time points (i.e. t=0, 3, 24 hrs, henceafter daily up to 10 days), 2 uL of sample was added to 18 uL of 30 mM ammonium bicarbonate in a 1:1 mixture of acetonitrile:H2O. Samples were frozen at −80 deg C. until the time of analysis. For mass spectrometric analysis that determines the approximate detection window of the peptide, the acetonitrile:H2O-diluted sample of a given time point was spotted directly (0.7 uL) onto the MALDI plate. Matrix (alpha-cyanocinnamic acid, Sigma, prepared as a saturated solution in 1:1 acetonitrile:water containing 0.1% trifluoroacetic acid) was layered over the sample (1 uL). At a similar laser intensity setting on the MALDI TOF, the time could then be determined until parent peptide was no longer detectable. It should be noted that this is a qualitative assay serves to detect relative changes in plasma stability.

Which “Observable in rat plasma, for days” value does the source give for `CC(=O)N[C@H]1CSCc2cc3cc(c2)CSC[C@H](NC(=O)[C@H](CCCNC(=N)N)N(C)C(=O)[C@H](C)NC(=O)[C@@H]2CCN2C(=O)[C@H](Cc2c[nH]c4ccccc24)NC(=O)[C@H](CO)NC1=O)C(=O)N[C@@H](CC(C)C)C(=O)N[C@@H](Cc1c[nH]cn1)C(=O)N[C@@H](CCC(N)=O)C(=O)N[C@@H](CC(=O)O)C(=O)N[C@@H](CC(C)C)C(=O)N[C@H](C(N)=O)CSC3` [Ac-(06-34-18) Aze3 NMeArg5] (Ac-CSW[Aze]A[NMeR]CLHQDLC-NH2; linker 1-7-13 via TBMB) here?
Its value is >10 days.

Which “Observable in rat plasma, for days” value does the source give for `CC(=O)N[C@H]1CSCc2cc3cc(c2)CSC[C@H](NC(=O)[C@H](CCCNC(=N)N)NC(=O)[C@H](C)NC(=O)[C@@H]2CCCN2C(=O)[C@H](CC2CCCCC2)NC(=O)[C@H](CO)NC1=O)C(=O)N[C@@H](CC(C)C)C(=O)N[C@@H](Cc1c[nH]cn1)C(=O)N[C@@H](CCC(N)=O)C(=O)N[C@@H](CC(=O)O)C(=O)N[C@@H](CC(C)C)C(=O)N[C@H](C(N)=O)CSC3` [Ac-(06-34-18) Cha2] (Ac-CS[Cha]PARCLHQDLC-NH2; linker 1-7-13 via TBMB) here?
The value was 2 days.

Which “Observable in rat plasma, for days” value does the source give for `CCCC1(CCC)NC(=O)[C@@H](NC(C)=O)CSCc2cc3cc(c2)CSC[C@H](NC(=O)[C@H](CCCNC(=N)N)NC(=O)[C@H](C)NC(=O)[C@@H]2CCCN2C(=O)[C@H](Cc2c[nH]c4ccccc24)NC1=O)C(=O)N[C@@H](CC(C)C)C(=O)N[C@@H](Cc1c[nH]cn1)C(=O)N[C@@H](CCC(N)=O)C(=O)N[C@@H](CC(=O)O)C(=O)N[C@@H](CC(C)C)C(=O)N[C@H](C(N)=O)CSC3` [Ac-(06-34-18) Dpg1] (Ac-C[Dpg]WPARCLHQDLC-NH2; linker 1-7-13 via TBMB) here?
The value was 2 days.

With `CC(=O)N[C@H]1CSCc2cc3cc(c2)CSC[C@H](NC(=O)[C@H](CCCNC(=N)N)NC(=O)[C@H](C)NC(=O)[C@@H]2Cc4ccccc4N2C(=O)[C@H](Cc2c[nH]c4ccccc24)NC(=O)[C@H](CO)NC1=O)C(=O)N[C@@H](CC(C)C)C(=O)N[C@@H](Cc1c[nH]cn1)C(=O)N[C@@H](CCC(N)=O)C(=O)N[C@@H](CC(=O)O)C(=O)N[C@@H](CC(C)C)C(=O)N[C@H](C(N)=O)CSC3` [Ac-(06-34-18) Ind3] (Ac-CSW[X1]ARCLHQDLC-NH2; linker 1-7-13 via TBMB) as the molecule, how does the “Observable in rat plasma, for days” value read?
Its value is 2 days.

Which “Observable in rat plasma, for days” value does the source give for `CC(=O)N[C@H]1CSCc2cc3cc(c2)CSC[C@H](NC(=O)[C@H](CCCNC(=N)N)NC(=O)[C@H](C)NC(=O)[C@@H]2CCCN2C(=O)[C@@H]2Cc4c([nH]c5ccccc45)CN2C(=O)[C@H](CO)NC1=O)C(=O)N[C@@H](CC(C)C)C(=O)N[C@@H](Cc1c[nH]cn1)C(=O)N[C@@H](CCC(N)=O)C(=O)N[C@@H](CC(=O)O)C(=O)N[C@@H](CC(C)C)C(=O)N[C@H](C(N)=O)CSC3` [Ac-(06-34-18) NorHar2] (Ac-CS[Tpi]PARCLHQDLC-NH2; linker 1-7-13 via TBMB) here?
The value was 2 days.

Which “Observable in rat plasma, for days” value does the source give for `CC(=O)N[C@H]1CSCc2cc3cc(c2)CSC[C@H](NC(=O)[C@H](CCCNC(=N)N)NC(=O)[C@H](C)NC(=O)[C@@H]2Cc4c([nH]c5ccccc45)CN2C(=O)[C@H](Cc2c[nH]c4ccccc24)NC(=O)[C@H](CO)NC1=O)C(=O)N[C@@H](CC(C)C)C(=O)N[C@@H](Cc1c[nH]cn1)C(=O)N[C@@H](CCC(N)=O)C(=O)N[C@@H](CC(=O)O)C(=O)N[C@@H](CC(C)C)C(=O)N[C@H](C(N)=O)CSC3` [Ac-(06-34-18) NorHar3] (Ac-CSW[Tpi]ARCLHQDLC-NH2; linker 1-7-13 via TBMB) here?
Its value is 2 days.

With `CC(=O)N[C@H]1CSCc2cc3cc(c2)CSC[C@H](NC(=O)[C@H](CCCNC(=N)N)NC(=O)[C@H](C)NC(=O)[C@@H]2CCCCN2C(=O)[C@H](Cc2c[nH]c4ccccc24)NC(=O)[C@H](CO)NC1=O)C(=O)N[C@@H](CC(C)C)C(=O)N[C@@H](Cc1c[nH]cn1)C(=O)N[C@@H](CCC(N)=O)C(=O)N[C@@H](CC(=O)O)C(=O)N[C@@H](CC(C)C)C(=O)N[C@H](C(N)=O)CSC3` [Ac-(06-34-18) Pip3] (Ac-CSW[Pip]ARCLHQDLC-NH2; linker 1-7-13 via TBMB) as the molecule, how does the “Observable in rat plasma, for days” value read?
The value was 2 days.

For `CC(=O)N[C@H]1CSCc2cc3cc(c2)CSC[C@H](NC(=O)[C@H](CCCNC(=N)N)NC(=O)[C@H](CO)NC(=O)[C@@H]2CCCN2C(=O)[C@H](Cc2c[nH]c4ccccc24)NC(=O)[C@H](CO)NC1=O)C(=O)N[C@@H](CC(C)C)C(=O)N[C@@H](Cc1c[nH]cn1)C(=O)N[C@@H](CCC(N)=O)C(=O)N[C@@H](CC(=O)O)C(=O)N[C@@H](CC(C)C)C(=O)N[C@H](C(N)=O)CSC3` [Ac-(06-34-18) WPSR] (Ac-CSWPSRCLHQDLC-NH2; linker 1-7-13 via TBMB), which “Observable in rat plasma, for days” value is on record?
The value was 2 days.
